Patent publication US20050112573A1, “Method of detecting toxic substance” (priority 2001, published 2005)

Tested on: yeast genes (level of expressed mRNA)
Experiment: DNA chip analysis of expressed mRNA of yeast genes after 2 h culture with a toxic chemical substance
Type: cell-based, Saccharomyces cerevisiae S288C
Protocol: Yeast (Saccharomyces cerevtisiae S288C (α SUC2mal mel gap2 CUP1)) were cultured at 25° C. on YPD medium (yeast extract 1%, polypepton 2%, glucose 2%). One of toxic chemical substances was added to the cell at logarithmic growth phase, and the cell was further cultured for two hours. Cell was cultured without any chemical substance in the same condition, and was used as control. Concentrations of the chemical substances were defined to inhibit the growth of the yeast but not lead to death.
After the completion of cultivation, the culture was centrifuged to collect the cells. To the cells, sodium acetate buffer (50 mM sodium acetate, 10 mM EDTA, 1% SDS) was added, and the mixture was shaken at 65° C. for five minutes, followed by returning to room temperature, and obtaining the supernatant, which procedure was repeated two times. To the supernatant, ½ amount of a solution of phenol/chloroform was added, and the mixture was centrifuged to give a supernatant, which was added with an equal amount of chloroform, and the mixture was centrifuged to give a supernatant. To the supernatant, an equal amount of isopropanol containing 0.3 M sodium acetate was added, and the mixture was allowed to stand at room temperature for 30 minutes, after which the mixture was centrifuged to give a sediment of the whole RNAs. Seventy % ethanol was added to the sediment, and the mixture was again centrifuged to give a sediment, which was then dried and dissolved in water. mRNA was isolated from the whole RNAs as followings. In view of the fact that a poly A chain is attached to the 3′ terminus of mRNA, a polynucleotide having a poly T structure which was immobilized on the surface of latex beads was used to trap the mRNA, and then the mRNA was washed and eluted with spine column (Oligotex-dT30<Super>mRNA Purification Kit, Takara). Reverse transcription of the mRNA was conducted with a reverse transcriptase (Super Script II Reverse Transcriptase; catalogue No. 18064-014, GibcoBRL) using fluorescence-labeled nucleotides to give cDNAs that were introduced with Cy3-dUTP or Cy5-dUTP during the reverse transcription.
The labeled cDNAs were dissolved in TE buffer (10 mM Tris-HCl/1 mM EDTA, pH8.0), and the solution was dropped on the DNA chip containing the whole genes of yeast (DNA Chip Research Inc. Japan) so that the cDNAs were hybridized on the DNA chip at 65° C. for over 12 hours. The fluoresces intensity of the DNA chip was read with a scanner, and the ratio relative to the fluorescence intensity resulting from the absence of chemical substance was estimated as the following, which is shown in Tables 1 to 9: [formula]
In the Tables, “Intensity” indicated in the rightmost column is a value of the level of expressed mRNA of each gene in control cells as divided by the average level of the expressions of the whole genes.

S=C([S-])NCCNC(=S)[S-].[Zn+2] [(11), zinc N,N′-ethylenebis(dithiocarbamate)]
The level of expressed mRNA in the presence of chemical substance/absence: YDR128W (gene YDR128W): 0.3
The level of expressed mRNA in the presence of chemical substance/absence: YDR133C (gene YDR133C): 1.3
The level of expressed mRNA in the presence of chemical substance/absence: YDR140W (gene YDR140W): 1.7
The level of expressed mRNA in the presence of chemical substance/absence: YDR221W (gene YDR221W): 0.7
The level of expressed mRNA in the presence of chemical substance/absence: YDR250C (gene YDR250C): 0.6
The level of expressed mRNA in the presence of chemical substance/absence: YDR271C (gene YDR271C): 0.6
The level of expressed mRNA in the presence of chemical substance/absence: YDR278C (gene YDR278C): 0.4
The level of expressed mRNA in the presence of chemical substance/absence: YDR281C (gene YDR281C): 0.8
The level of expressed mRNA in the presence of chemical substance/absence: YDR316W (gene YDR316W): 1.3
The level of expressed mRNA in the presence of chemical substance/absence: YDR338C (gene YDR338C): 1.9
The level of expressed mRNA in the presence of chemical substance/absence: YDR366C (gene YDR366C): 1.7
level of expressed mRNA in the presence of chemical substance/in its absence (gene YDR380W): 0.4
level of expressed mRNA in the presence of chemical substance/in its absence (gene YDR410C): 1.6
The level of expressed mRNA in the presence of chemical substance/absence: YDR421W (gene YDR421W): 1.0
The level of expressed mRNA in the presence of chemical substance/absence: YDR425W (gene YDR425W): 0.9
The level of expressed mRNA in the presence of chemical substance/absence: YDR485C (gene YDR485C): 0.9
level of expressed mRNA in the presence of chemical substance/in its absence (gene YDR487C): 2.1
level of expressed mRNA in the presence of chemical substance/in its absence (gene YDR502C): 1.3
The level of expressed mRNA in the presence of chemical substance/absence: YDR504C (gene YDR504C): 1.2
level of expressed mRNA in the presence of chemical substance/in its absence (gene YEL011W): 3.7
level of expressed mRNA in the presence of chemical substance/in its absence (gene YEL020C): 1.3
The level of expressed mRNA in the presence of chemical substance/absence: YEL044W (gene YEL044W): 1.6
level of expressed mRNA in the presence of chemical substance/in its absence (gene YER026C): 0.9
level of expressed mRNA in the presence of chemical substance/in its absence (gene YER069W): 1.5
The level of expressed mRNA in the presence of chemical substance/absence: YER092W (gene YER092W): 0.9
The level of expressed mRNA in the presence of chemical substance/absence: YER182W (gene YER182W): 1.5
The level of expressed mRNA in the presence of chemical substance/absence: YFL042C (gene YFL042C): 5.4
level of expressed mRNA in the presence of chemical substance/in its absence (gene YFR015C): 3.9
The level of expressed mRNA in the presence of chemical substance/absence: YFR026C (gene YFR026C): 0.8
The level of expressed mRNA in the presence of chemical substance/absence: YFR056C (gene YFR056C): 1.3
level of expressed mRNA in the presence of chemical substance/in its absence (gene YGL001C): 1.6
level of expressed mRNA in the presence of chemical substance/in its absence (gene YGL022W): 0.8
level of expressed mRNA in the presence of chemical substance/in its absence (gene YGL039W): 1.1
The level of expressed mRNA in the presence of chemical substance/absence: YGL041C (gene YGL041C): 0.6
The level of expressed mRNA in the presence of chemical substance/absence: YGL045W (gene YGL045W): 1.2
The level of expressed mRNA in the presence of chemical substance/absence: YGL057C (gene YGL057C): 1.3
The level of expressed mRNA in the presence of chemical substance/absence: YGL088W (gene YGL088W): 0.8
level of expressed mRNA in the presence of chemical substance/in its absence (gene YGL104C): 1.8
level of expressed mRNA in the presence of chemical substance/in its absence (gene YGL126W): 1.0
level of expressed mRNA in the presence of chemical substance/in its absence (gene YGL134W): 1.1
level of expressed mRNA in the presence of chemical substance/in its absence (gene YGL154C): 0.9
The level of expressed mRNA in the presence of chemical substance/absence: YGL183C (gene YGL183C): 0.8
level of expressed mRNA in the presence of chemical substance/in its absence (gene YGL209W): 0.8
The level of expressed mRNA in the presence of chemical substance/absence: YGL223C (gene YGL223C): 1.3
level of expressed mRNA in the presence of chemical substance/in its absence (gene YGL253W): 1.0
The level of expressed mRNA in the presence of chemical substance/absence: YGR038W (gene YGR038W): 1.4
level of expressed mRNA in the presence of chemical substance/in its absence (gene YGR060W): 0.8
The level of expressed mRNA in the presence of chemical substance/absence: YGR139W (gene YGR139W): 0.9
The level of expressed mRNA in the presence of chemical substance/absence: YGR156W (gene YGR156W): 0.5
The level of expressed mRNA in the presence of chemical substance/absence: YGR198W (gene YGR198W): 1.0
The level of expressed mRNA in the presence of chemical substance/absence: YGR210C (gene YGR210C): 1.0
The level of expressed mRNA in the presence of chemical substance/absence: YGR211W (gene YGR211W): 0.8
The level of expressed mRNA in the presence of chemical substance/absence: YGR237C (gene YGR237C): 1.6
The level of expressed mRNA in the presence of chemical substance/absence: YGR243W (gene YGR243W): 1.7
The level of expressed mRNA in the presence of chemical substance/absence: YGR250C (gene YGR250C): 1.6
The level of expressed mRNA in the presence of chemical substance/absence: YGR266W (gene YGR266W): 1.2
The level of expressed mRNA in the presence of chemical substance/absence: YGR277C (gene YGR277C): 1.2
